Assay results as given in PubChem BioAssay (NCI).
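Protocol summary: plate cells (96-well), add compound at 5 concentrations, incubate 48 h, interpolate endpoints linearly. GI50 marks 50% less growth. TGI denotes the concentration required for complete inhibition of growth.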

How the values were obtained:
Experiment in all cases: growth of human tumour cells (NCI), 48 h
[1] = tested on: SK-MEL-28 melanoma
[2] = tested on: UACC-257 melanoma
[3] = tested on: SN12C renal
[4] = tested on: OVCAR-8 ovarian
[5] = tested on: PC-3 prostate
[6] = tested on: NCI-H226 lung
[7] = tested on: OVCAR-5 ovarian
[8] = tested on: T-47D breast
[9] = tested on: MALME-3M melanoma
[10] = tested on: SR leukemia

| Structure (SMILES) | GI50 [1] [µM] | TGI [1] [µM] | GI50 [2] [µM] | TGI [2] [µM] | GI50 [3] [µM] | TGI [3] [µM] | GI50 [4] [µM] | TGI [4] [µM] | GI50 [5] [µM] | TGI [5] [µM] | GI50 [6] [µM] | TGI [6] [µM] | GI50 [7] [µM] | TGI [7] [µM] | GI50 [8] [µM] | TGI [8] [µM] | TGI [9] [µM] | TGI [10] [µM] | GI50 [10] [µM] | GI50 [9] [µM] |
| --- | --- | --- | --- | --- | --- | --- | --- | --- | --- | --- | --- | --- | --- | --- | --- | --- | --- | --- | --- | --- |
| O=C(Nc1ccc(Cl)cc1)c1ccc(NC2=C(Cl)C(=O)N(Cc3ccccc3)C2=O)cc1 | 17.4 | 37.9 | 22.2 | 63.5 | 7.67 | 25.1 | 7.92 | 28.1 | 11.4 | 27.1 | 11.2 | 28.4 | 14.1 | 28.1 | 20.6 | 67.3 | – | – | – | – |
| CN1c2ccccc2N(C)C2C1N(C)c1ccccc1N2C (configuration not stated) | – | 17.6 | – | > 100 | – | > 100 | – | > 100 | – | – | – | 83.2 | – | > 100 | – | – | 76.4 | – | – | – |
| COc1cc(/C=C2\CC3C4CC=C5C[C@@H](OC(C)=O)CC[C@]5(C)C4CC[C@]3(C)C2=O)ccc1OCCCn1ccnc1 (some centres not stated) | 16 | > 50 | 10.4 | 22.5 | 8.99 | 16.6 | 11 | 21.6 | 18 | 42.1 | 8.26 | 17.8 | 11.9 | 40.9 | 19.8 | > 50 | – | – | – | – |
| CN1NC2(CCCCC2)ON=C1c1ccccc1 | – | > 100 | – | > 100 | – | > 100 | – | > 100 | – | – | – | > 100 | – | > 100 | – | – | > 100 | > 100 | – | – |
| O=S(=O)(NCC1CCC(CNc2ccc(Cl)cc2)CC1)c1ccc(-c2ccccc2)cc1 (configuration not stated) | > 50 | > 50 | > 50 | > 50 | > 50 | > 50 | 41.4 | > 50 | 40.9 | > 50 | 21.2 | > 50 | 29.3 | > 50 | – | – | – | > 50 | > 50 | – |
| CN(C)CCCN1c2nc3ccccc3cc2Sc2cc3ccccc3nc21 | 1.04 | 2.21 | 1.76 | 3.53 | 1.28 | 2.55 | – | – | 1.36 | 2.74 | 1.46 | 4.03 | 1.54 | 2.97 | – | – | 2.89 | – | – | 1.33 |
| COc1ccc(C(N)=O)cc1N=NN(C)C | – | > 100 | – | > 100 | – | > 100 | – | > 100 | – | – | – | > 100 | – | > 100 | – | – | > 100 | > 100 | – | – |
| COC1OC(CO)C(O)C(O)C1Br (configuration not stated) | – | > 100 | – | > 100 | – | > 100 | – | > 100 | – | – | – | – | – | > 100 | – | – | > 100 | > 100 | – | – |
| Cc1c(C(=O)NCCO)[n+](=O)c2cc(Cl)ccc2n1[O-] | – | > 100 | – | > 100 | – | > 100 | – | > 100 | – | – | – | – | – | > 100 | – | – | > 100 | > 100 | – | – |
| CC(=O)OCCOCNC(=S)N/N=C(\C)c1cnc2ccccc2n1 | – | > 100 | – | > 100 | – | > 100 | – | > 100 | – | – | – | > 100 | – | 61.3 | – | – | > 100 | > 100 | – | – |
| C=C=C(CC)C(C(=O)OC)N(CC)CC (configuration not stated) | – | > 100 | – | > 100 | – | > 100 | – | > 100 | – | – | – | > 100 | – | – | – | – | > 100 | > 100 | – | – |
| CN(C)C(N)=NC#N | – | > 100 | – | > 100 | – | > 100 | – | > 100 | – | – | – | > 100 | – | > 100 | – | – | > 100 | – | – | – |
| CCC(=O)C(C)C1=Nc2nnc(CCCCCCCc3nnc4n3C(=O)C(C(C)C(=O)CC)=N4)n2C1=O (configuration not stated) | – | > 100 | – | > 100 | – | > 100 | – | > 100 | – | – | – | > 100 | – | > 100 | – | – | > 100 | > 100 | – | – |
| CC(=O)O[C@H]1CC[C@@]2(C)C(=CC[C@H]3C4=CC=C(C(C)=O)[C@@]4(C)CCC32)C1 (some centres not stated) | – | > 100 | – | 62.1 | – | > 100 | – | 66.3 | – | – | – | 71.4 | – | > 100 | – | – | > 100 | 81 | – | – |
| CC1(C)OC(=O)C=C([O-])O1.CC1(C)OC(=O)C=C([O-])O1.O=S(=O)([O-])c1ccc([O-])c2ncccc12.O=S(=O)([O-])c1ccc([O-])c2ncccc12.[Ti+4] | > 100 | > 100 | > 100 | > 100 | > 100 | > 100 | 83.4 | > 100 | – | – | > 100 | > 100 | 25.9 | 63.1 | – | – | > 100 | – | – | > 100 |
| CC(=O)OC1CC2C(C)(C)C(=O)C=C[C@]2(C)C2CCC3(C)C(c4ccoc4)C(=O)[C@H]4O[C@]43[C@]12C (some centres not stated) | – | 32.7 | – | – | – | 66.1 | – | 49.9 | – | – | – | 50.4 | – | 42.5 | – | – | 32.1 | – | – | – |
